# Data taken from paper PMC9407317 (Proceedings of the National Academy of Sciences of the …, 2022).
# Tests used:
# [1] = target: T1, SK4 K+ channel (Homo sapiens, UniProt O15554); experiment: whole-cell patch clamp; format: cell-based; settings: read-out: % inhibition at 0.5 μM
# [2] = target: T1, SK4 K+ channel; format: cell-based
# T1 sequence (O15554 whole entry): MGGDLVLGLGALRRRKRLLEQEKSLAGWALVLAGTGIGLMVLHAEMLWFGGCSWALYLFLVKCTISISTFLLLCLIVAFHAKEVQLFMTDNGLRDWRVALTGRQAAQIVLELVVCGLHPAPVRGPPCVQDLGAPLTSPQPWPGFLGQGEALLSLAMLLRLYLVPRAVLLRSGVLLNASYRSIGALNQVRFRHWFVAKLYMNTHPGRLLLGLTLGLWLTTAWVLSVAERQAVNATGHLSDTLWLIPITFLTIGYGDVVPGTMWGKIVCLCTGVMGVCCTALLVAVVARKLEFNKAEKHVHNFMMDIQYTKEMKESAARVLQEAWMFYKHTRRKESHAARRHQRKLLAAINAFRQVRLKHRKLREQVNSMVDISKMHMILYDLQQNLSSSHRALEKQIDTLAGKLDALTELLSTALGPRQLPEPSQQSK
EC50 [2] [nM],Compound,inhibition at 0.5 µM [1] [%]
,Clc1ccccc1C(c1ccccc1)(c1ccccc1)n1cccn1 [Tram-34],86
154,CCCCCCCC(=O)OC[C@H](COP(=O)(O)O[C@@H]1[C@H](O)[C@H](O)[C@@H](OP(=O)(O)O)[C@H](OP(=O)(O)O)[C@H]1O)OC(=O)CCCCCCC [diC8-PIP2],
